From patent publication US8163728B2, “Pyrazoles” (Hoffmann-La Roche Inc., priority 2009, dated 2012) come the findings set out here.

Molecules are shown by their SMILES.

For this experiment, the target named is T1, GABA A α5 (Homo sapiens, UniProt P18507+P31644).
T1 construct: expressed in transfected cells; host or cells: HEK293 cells, transiently transfected; membranes prepared from cell pellets
As to the kind of experiment: [3H]flumazenil competition binding, human GABA A α5β3γ2 receptors in HEK293 cell membranes. The note with it: human receptor α5β3γ2 transiently transfected in HEK293; 0.5 nM [3H]flumazenil; 1 hour at 4° C.; means of two determinations; read-out: hKi GABA A α5. The method, boiled down: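 Competition with [3H]flumazenil for binding to membranes of HEK293 cells transiently expressing human α5β3γ2, in Krebs-tris buffer pH 7.5. Incubated to equilibrium 1 h at 4 °C, filtered and scintillation-counted; Ki values are means of two determinations.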
As for `Cn1ccc(NC(=O)c2cc(OCc3c(-c4ccc(F)cc4)noc3CO)nn2C)n1` [Example 96, 5-[3-(4-Fluoro-phenyl)-5-hydroxymethyl-isoxazol-4-ylmethoxy]-2-methyl-2H-pyrazole-3-carboxylic acid (1-methyl-1H-pyrazol-3-yl)-amide], the Ki is 42.7 nM. Under `Cn1nc(OCc2c(-c3ccc(F)cc3)noc2CO)cc1C(=O)N1CC2(COC2)C1` [Example 99, {5-[3-(4-Fluoro-phenyl)-5-hydroxymethyl-isoxazol-4-ylmethoxy]-2-methyl-2H-pyrazol-3-yl}-(2-oxa-6-aza-spiro[3.3]hept-6-yl)-methanone] stands 24 nM; under `CC(C)NC(=O)c1cc(OCc2c(-c3ccc(Cl)cc3)noc2CO)nn1C` [Example 100, 5-[3-(4-Chloro-phenyl)-5-hydroxymethyl-isoxazol-4-ylmethoxy]-2-methyl-2H-pyrazole-3-carboxylic acid isopropylamide], 5.8 nM; under `Cn1nc(OCc2c(-c3ccc(Cl)cc3)noc2CO)cc1C(=O)NC1CCOCC1` [Example 101, 5-[3-(4-Chloro-phenyl)-5-hydroxymethyl-isoxazol-4-ylmethoxy]-2-methyl-2H-pyrazole-3-carboxylic acid (tetrahydro-pyran-4-yl)-amide], 0.9 nM.

For `Cn1nc(OCc2c(-c3ccc(Cl)cc3)noc2CO)cc1C(N)=O` [Example 102, 5-[3-(4-Chloro-phenyl)-5-hydroxymethyl-isoxazol-4-ylmethoxy]-2-methyl-2H-pyrazole-3-carboxylic acid amide], the Ki stood at 12.6 nM. Next, `Cn1nc(OCc2c(-c3ccc(Cl)cc3)noc2CO)cc1C(=O)NCC(F)(F)F` [Example 103, 5-[3-(4-Chloro-phenyl)-5-hydroxymethyl-isoxazol-4-ylmethoxy]-2-methyl-2H-pyrazole-3-carboxylic acid (2,2,2-trifluoro-ethyl)-amide]: 5.7 nM; `Cn1nc(OCc2c(-c3ccc(Cl)cc3)noc2CO)cc1C(=O)NCC(F)(F)C(F)(F)F` [Example 104, 5-[3-(4-Chloro-phenyl)-5-hydroxymethyl-isoxazol-4-ylmethoxy]-2-methyl-2H-pyrazole-3-carboxylic acid (2,2,3,3,3-pentafluoro-propyl)-amide]: 6.6 nM. With `Cn1nc(OCc2c(-c3ccc(Cl)cc3)noc2CO)cc1C(=O)NC1CC1` [Example 105, 5-[3-(4-Chloro-phenyl)-5-hydroxymethyl-isoxazol-4-ylmethoxy]-2-methyl-2H-pyrazole-3-carboxylic acid cyclopropylamide], the Ki is 5.4 nM. Next, `Cn1nc(OCc2c(-c3ccc(Cl)cc3)noc2CO)cc1C(=O)NC(C)(C)CO` [Example 107, 5-[3-(4-Chloro-phenyl)-5-hydroxymethyl-isoxazol-4-ylmethoxy]-2-methyl-2H-pyrazole-3-carboxylic acid (2-hydroxy-1,1-dimethyl-ethyl)-amide]: 17.8 nM. For `Cn1nc(OCc2c(-c3ccc(Cl)cc3)noc2CO)cc1C(=O)NC1(C)COC1` [Example 108, 5-[3-(4-Chloro-phenyl)-5-hydroxymethyl-isoxazol-4-ylmethoxy]-2-methyl-2H-pyrazole-3-carboxylic acid (3-methyl-oxetan-3-yl)-amide], the Ki was found to be 3.1 nM. With `Cn1nc(OCc2c(-c3ccc(Cl)cc3)noc2CO)cc1C(=O)N1CC2(COC2)C1` [Example 109, {5-[3-(4-Chloro-phenyl)-5-hydroxymethyl-isoxazol-4-ylmethoxy]-2-methyl-2H-pyrazol-3-yl}-(2-oxa-6-aza-spiro[3.3]hept-6-yl)-methanone], the Ki came out at 9 nM. Turning to `Cn1nc(OCc2c(-c3ccc(Cl)cc3)noc2CO)cc1C(=O)N1CCC(F)(F)CC1` [Example 111, {5-[3-(4-Chloro-phenyl)-5-hydroxymethyl-isoxazol-4-ylmethoxy]-2-methyl-2H-pyrazol-3-yl}-(4,4-difluoro-piperidin-1-yl)-methanone], the Ki came to 52.5 nM. Turning to `CCCCc1noc(CO)c1COc1cc(C(=O)NCC(F)(F)F)n(C)n1` [Example 112, 5-(3-Butyl-5-hydroxymethyl-isoxazol-4-ylmethoxy)-2-methyl-2H-pyrazole-3-carboxylic acid (2,2,2-trifluoro-ethyl)-amide], the Ki stood at 45.1 nM. Under `CCCCc1noc(CO)c1COc1cc(C(=O)NC2CCC2)n(C)n1` [Example 113, 5-(3-Butyl-5-hydroxymethyl-isoxazol-4-ylmethoxy)-2-methyl-2H-pyrazole-3-carboxylic acid cyclobutylamide] stands 39.6 nM; under `Cc1onc(-c2ccccn2)c1COc1cc(C(=O)NC(C)C)nn1C` [Example 115, 1-Methyl-5-(5-methyl-3-pyridin-2-yl-isoxazol-4-ylmethoxy)-1H-pyrazole-3-carboxylic acid isopropylamide], 20.5 nM. Next, `Cc1onc(-c2ccccn2)c1COc1cc(C(=O)NC2CCOCC2)nn1C` [Example 116, 1-Methyl-5-(5-methyl-3-pyridin-2-yl-isoxazol-4-ylmethoxy)-1H-pyrazole-3-carboxylic acid (tetrahydro-pyran-4-yl)-amide]: 18.2 nM; `Cc1onc(-c2ccc(F)cn2)c1COc1cc(C(=O)N[C@@H](C)CO)nn1C` [Example 117, 5-[3-(5-Fluoro-pyridin-2-yl)-5-methyl-isoxazol-4-ylmethoxy]-1-methyl-1H-pyrazole-3-carboxylic acid ((S)-2-hydroxy-1-methyl-ethyl)-amide]: 6.8 nM. Next, `Cc1onc(-c2ccccc2)c1/C=C/c1cc(C(=O)NC(C)C)[nH]n1` [Example 118, 5-[(E)-2-(5-Methyl-3-phenyl-isoxazol-4-yl)-vinyl]-2H-pyrazole-3-carboxylic acid iso-propylamide]: 5.1 nM. Regarding `Cc1onc(-c2ccccc2)c1/C=C\c1cc(C(=O)NC(C)C)[nH]n1` [Example 119, 5-[(Z)-2-(5-Methyl-3-phenyl-isoxazol-4-yl)-vinyl]-2H-pyrazole-3-carboxylic acid iso-propylamide], the Ki was 20.2 nM. With `Cc1onc(-c2ccc(F)cc2)c1/C=C\c1cc(C(=O)NC(C)C)n(C)n1` [Example 120, 5-{(Z)-2-[3-(4-Fluoro-phenyl)-5-methyl-isoxazol-4-yl]-vinyl}-2-methyl-2H-pyrazole-3-carboxylic acid isopropylamide], the Ki was found to be 28 nM. Next, `Cc1onc(-c2ccc(F)cc2)c1/C=C\c1cc(C(=O)NC(C)CO)n(C)n1` (stereo not shown) [Example 121, 5-{(Z)-2-[3-(4-Fluoro-phenyl)-5-methyl-isoxazol-4-yl]vinyl}-2-methyl-2H-pyrazole-3-carboxylic acid (2-hydroxy-1-methyl-ethyl)-amide]: 49.6 nM; `Cc1onc(-c2ccc(F)cc2)c1/C=C/c1cc(C(=O)NC(C)C)n(C)n1` [Example 122, 5-{(E)-2-[3-(4-Fluoro-phenyl)-5-methyl-isoxazol-4-yl]vinyl}-2-methyl-2H-pyrazole-3-carboxylic acid isopropylamide]: 1.6 nM; `CCNC(=O)c1cc(/C=C/c2c(-c3ccc(F)cc3)noc2C)nn1C` [Example 123, 5-{(E)-2-[3-(4-Fluoro-phenyl)-5-methyl-isoxazol-4-yl]vinyl}-2-methyl-2H-pyrazole-3-carboxylic acid ethylamide]: 1.3 nM. Under `Cc1onc(-c2ccc(F)cc2)c1/C=C/c1cc(C(=O)NCC(C)(C)O)n(C)n1` [Example 124, 5-{(E)-2-[3-(4-Fluoro-phenyl)-5-methyl-isoxazol-4-yl]vinyl}-2-methyl-2H-pyrazole-3-carboxylic acid (2-hydroxy-2-methyl-propyl)-amide] stands 2 nM; under `Cc1onc(-c2ccc(F)cc2)c1/C=C/c1cc(C(=O)NC2CCOCC2)n(C)n1` [Example 125, 5-{(E)-2-[3-(4-Fluoro-phenyl)-5-methyl-isoxazol-4-yl]vinyl}-2-methyl-2H-pyrazole-3-carboxylic acid (tetrahydro-pyran-4-yl)-amide], 0.4 nM. Under `Cc1onc(-c2ccc(F)cc2)c1/C=C/c1cc(C(N)=O)n(C)n1` [Example 126, 5-{(E)-2-[3-(4-Fluoro-phenyl)-5-methyl-isoxazol-4-yl]vinyl}-2-methyl-2H-pyrazole-3-carboxylic acid amide] stands 1.5 nM; under `Cc1onc(-c2ccc(F)cc2)c1/C=C/c1cc(C(=O)N2CCS(=O)(=O)CC2)n(C)n1` [Example 127, (1,1-Dioxo-1,6-thiomorpholin-4-yl)-(5-{(E)-2-[3-(4-fluoro-phenyl)-5-methyl-isoxazol-4-yl]-vinyl}-2-methyl-2H-pyrazol-3-yl)-methanone], 29.3 nM; under `Cc1onc(-c2ccc(F)cc2)c1/C=C/c1cc(C(=O)NCC(F)(F)F)n(C)n1` [Example 128, 5-{(E)-2-[3-(4-Fluoro-phenyl)-5-methyl-isoxazol-4-yl]vinyl}-2-methyl-2H-pyrazole-3-carboxylic acid (2,2,2-trifluoro-ethyl)-amide], 1.2 nM. In the case of `Cc1onc(-c2ccc(F)cc2)c1/C=C/c1cc(C(=O)N2CCOCC2)n(C)n1` [Example 129, (5-{(E)-2-[3-(4-Fluoro-phenyl)-5-methyl-isoxazol-4-yl]vinyl}-2-methyl-2H-pyrazol-3-yl)-morpholin-4-yl-methanone], the Ki was 11.8 nM. Under `Cc1onc(-c2ccc(F)cc2)c1/C=C/c1cc(C(=O)NC(C)CO)n(C)n1` (stereo not shown) [Example 130, 5-{(E)-2-[3-(4-Fluoro-phenyl)-5-methyl-isoxazol-4-yl]vinyl}-2-methyl-2H-pyrazole-3-carboxylic acid (2-hydroxy-1-methyl-ethyl)-amide] stands 0.9 nM; under `Cc1onc(-c2ccc(F)cc2)c1/C=C/c1cc(C(=O)N2CCS(=O)(=O)CC2)[nH]n1` [Example 131, (1,1-Dioxo-1,6-thiomorpholin-4-yl)-(5-{(E)-2-[3-(4-fluoro-phenyl)-5-methyl-isoxazol-4-yl]-vinyl}-2H-pyrazol-3-yl)-methanone], 36.5 nM.
